According to PubChem BioAssay (NCI):
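Cultured in 96-well plates, cells were exposed to test compound for 48 hours across five concentrations. The concentration for 50% growth inhibition is given as GI50. TGI denotes the concentration required for complete inhibition of growth.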

Key:
Test in all cases: NCI anticancer screen, dose series, 48 h; in the data active = GI50 below about 0.43 µM; inactive = the rest
NCI/ADR-RES ovarian = system: NCI/ADR-RES ovarian
OVCAR-4 ovarian = system: OVCAR-4 ovarian
UACC-62 melanoma = system: UACC-62 melanoma
MDA-MB-231 breast = system: MDA-MB-231 breast
SN12C renal = system: SN12C renal
CAKI-1 renal = system: CAKI-1 renal
HS 578T breast = system: HS 578T breast
ACHN renal = system: ACHN renal
HCC-2998 colon = system: HCC-2998 colon
M14 melanoma = system: M14 melanoma
SK-MEL-2 melanoma = system: SK-MEL-2 melanoma
PC-3 prostate = system: PC-3 prostate
LOX IMVI melanoma = system: LOX IMVI melanoma
MDA-MB-435 = system: MDA-MB-435
U251 CNS = system: U251 CNS
RPMI-8226 leukemia = system: RPMI-8226 leukemia
MALME-3M melanoma = system: MALME-3M melanoma
RXF 393 renal = system: RXF 393 renal
SK-MEL-5 melanoma = system: SK-MEL-5 melanoma
NCI-H23 lung = system: NCI-H23 lung
OVCAR-5 ovarian = system: OVCAR-5 ovarian
DU-145 prostate = system: DU-145 prostate
MCF7 breast = system: MCF7 breast
SNB-75 CNS = system: SNB-75 CNS
SF-295 CNS = system: SF-295 CNS
SNB-19 CNS = system: SNB-19 CNS
786-0 renal = system: 786-0 renal
UACC-257 melanoma = system: UACC-257 melanoma
SW-620 colon = system: SW-620 colon
UO-31 renal = system: UO-31 renal
MDA-N = system: MDA-N
HCT-116 colon = system: HCT-116 colon
HT29 colon = system: HT29 colon
SR leukemia = system: SR leukemia
SK-OV-3 ovarian = system: SK-OV-3 ovarian
OVCAR-8 ovarian = system: OVCAR-8 ovarian
IGROV1 ovarian = system: IGROV1 ovarian
TK-10 renal = system: TK-10 renal
A549 NSCLC = system: A549 NSCLC
HOP-92 NSCLC = system: HOP-92 NSCLC
KM12 colon = system: KM12 colon
NCI-H460 lung = system: NCI-H460 lung
CCRF-CEM leukemia = system: CCRF-CEM leukemia
EKVX NSCLC = system: EKVX NSCLC
HCT-15 colon = system: HCT-15 colon
MOLT-4 leukemia = system: MOLT-4 leukemia
NCI-H522 lung = system: NCI-H522 lung
SK-MEL-28 melanoma = system: SK-MEL-28 melanoma
COLO 205 colon = system: COLO 205 colon
OVCAR-3 ovarian = system: OVCAR-3 ovarian
HOP-62 NSCLC = system: HOP-62 NSCLC
BT-549 breast = system: BT-549 breast
SF-539 CNS = system: SF-539 CNS
K-562 leukemia = system: K-562 leukemia
NCI-H226 lung = system: NCI-H226 lung
T-47D breast = system: T-47D breast
HL-60(TB) leukemia = system: HL-60(TB) leukemia
A498 renal = system: A498 renal
SF-268 CNS = system: SF-268 CNS

N#Cc1ccc(NC(=O)C(CC(=O)OCc2ccccc2)NC(=O)OCc2ccccc2)cc1 (stereo not drawn)
inactive: GI50 (NCI/ADR-RES ovarian) > 100 µM | GI50 (OVCAR-4 ovarian) > 100 µM | GI50 (UACC-62 melanoma) > 100 µM | GI50 (MDA-MB-231 breast) > 100 µM | GI50 (SN12C renal) > 100 µM | GI50 (CAKI-1 renal) > 100 µM | GI50 (HS 578T breast) > 100 µM | GI50 (ACHN renal) > 100 µM | GI50 (M14 melanoma) > 100 µM | GI50 (PC-3 prostate) > 100 µM | GI50 (LOX IMVI melanoma) > 100 µM | GI50 (MDA-MB-435) > 100 µM | GI50 (U251 CNS) > 100 µM | GI50 (RPMI-8226 leukemia) > 100 µM | GI50 (RXF 393 renal) > 100 µM | GI50 (NCI-H23 lung) > 100 µM | GI50 (OVCAR-5 ovarian) > 100 µM | GI50 (MCF7 breast) > 100 µM | GI50 (SNB-75 CNS) > 100 µM | GI50 (SF-295 CNS) > 100 µM | GI50 (SNB-19 CNS) > 100 µM | GI50 (786-0 renal) > 100 µM | GI50 (UACC-257 melanoma) > 100 µM | GI50 (SW-620 colon) > 100 µM | GI50 (UO-31 renal) > 100 µM | GI50 (MDA-N) > 100 µM | GI50 (HCT-116 colon) > 100 µM | GI50 (HT29 colon) > 100 µM | GI50 (SR leukemia) > 100 µM | GI50 (SK-OV-3 ovarian) > 100 µM | GI50 (OVCAR-8 ovarian) > 100 µM | GI50 (IGROV1 ovarian) > 100 µM | GI50 (TK-10 renal) > 100 µM | GI50 (A549 NSCLC) > 100 µM | GI50 (HOP-92 NSCLC) > 100 µM | GI50 (KM12 colon) > 100 µM | GI50 (NCI-H460 lung) > 100 µM | GI50 (CCRF-CEM leukemia) > 100 µM | GI50 (EKVX NSCLC) > 100 µM | GI50 (HCT-15 colon) > 100 µM | GI50 (MOLT-4 leukemia) > 100 µM | GI50 (NCI-H522 lung) > 100 µM | GI50 (SK-MEL-28 melanoma) > 100 µM | GI50 (COLO 205 colon) > 100 µM
> 100 µM: TGI (NCI/ADR-RES ovarian) | TGI (OVCAR-4 ovarian) | TGI (UACC-62 melanoma) | TGI (MDA-MB-231 breast) | TGI (SN12C renal) | TGI (CAKI-1 renal) | TGI (HS 578T breast) | TGI (ACHN renal) | TGI (HCC-2998 colon) | TGI (M14 melanoma) | TGI (SK-MEL-2 melanoma) | TGI (PC-3 prostate) | TGI (LOX IMVI melanoma) | TGI (MDA-MB-435) | TGI (U251 CNS) | TGI (RPMI-8226 leukemia) | TGI (MALME-3M melanoma) | TGI (RXF 393 renal) | TGI (SK-MEL-5 melanoma) | TGI (NCI-H23 lung) | TGI (OVCAR-5 ovarian) | TGI (DU-145 prostate) | TGI (MCF7 breast) | TGI (SNB-75 CNS) | TGI (SF-295 CNS) | TGI (SNB-19 CNS) | TGI (786-0 renal) | TGI (UACC-257 melanoma) | TGI (SW-620 colon) | TGI (UO-31 renal) | TGI (MDA-N) | TGI (HCT-116 colon) | TGI (HT29 colon) | TGI (SR leukemia) | TGI (SK-OV-3 ovarian) | TGI (OVCAR-8 ovarian) | TGI (IGROV1 ovarian) | TGI (TK-10 renal) | TGI (A549 NSCLC) | TGI (HOP-92 NSCLC) | TGI (KM12 colon) | TGI (NCI-H460 lung) | TGI (CCRF-CEM leukemia) | TGI (EKVX NSCLC) | TGI (HCT-15 colon) | TGI (MOLT-4 leukemia) | TGI (NCI-H522 lung) | TGI (SK-MEL-28 melanoma) | TGI (COLO 205 colon)

COC(=O)C1(C)Cc2cc(OC(C)=O)c(OC(C)=O)cc2N1 (stereo not drawn)
> 100 µM: TGI (HOP-62 NSCLC) | TGI (K-562 leukemia) | TGI (SF-295 CNS) | TGI (SNB-19 CNS) | TGI (SK-OV-3 ovarian) | TGI (NCI-H460 lung)
52.6 µM: TGI (SF-268 CNS)
> 72.6 µM: TGI (PC-3 prostate)
21.6 µM: TGI (MCF7 breast)
54.4 µM: TGI (M14 melanoma)
32.3 µM: TGI (SK-MEL-28 melanoma)
inactive: GI50 (OVCAR-3 ovarian) 6.97 µM | GI50 (NCI/ADR-RES ovarian) 16 µM | GI50 (OVCAR-4 ovarian) 9.34 µM | GI50 (UACC-62 melanoma) 4.09 µM | GI50 (MDA-MB-231 breast) 17.8 µM | GI50 (SN12C renal) 17 µM | GI50 (CAKI-1 renal) 2.98 µM | GI50 (ACHN renal) 3.42 µM | GI50 (HCC-2998 colon) 17.8 µM | GI50 (HOP-62 NSCLC) > 100 µM | GI50 (M14 melanoma) 15.6 µM | GI50 (SK-MEL-2 melanoma) 5.92 µM | GI50 (BT-549 breast) 4.93 µM | GI50 (PC-3 prostate) 9.64 µM | GI50 (LOX IMVI melanoma) 5.06 µM | GI50 (MDA-MB-435) 6.29 µM | GI50 (U251 CNS) 8.09 µM | GI50 (SF-539 CNS) 15.4 µM | GI50 (RPMI-8226 leukemia) 1.87 µM | GI50 (K-562 leukemia) 3.67 µM | GI50 (MALME-3M melanoma) 3.18 µM | GI50 (RXF 393 renal) 2.34 µM | GI50 (SK-MEL-5 melanoma) 13.9 µM | GI50 (NCI-H23 lung) 18.2 µM | GI50 (OVCAR-5 ovarian) 20 µM | GI50 (DU-145 prostate) 14.1 µM | GI50 (MCF7 breast) 3.74 µM | GI50 (NCI-H226 lung) 14.8 µM | GI50 (T-47D breast) 4.55 µM | GI50 (SNB-75 CNS) 26.3 µM | GI50 (SF-295 CNS) 67.5 µM | GI50 (SNB-19 CNS) > 61.9 µM | GI50 (786-0 renal) 24.1 µM | GI50 (UACC-257 melanoma) 1.68 µM | GI50 (SW-620 colon) 8.83 µM | GI50 (UO-31 renal) 3.59 µM | GI50 (HCT-116 colon) 3.96 µM | GI50 (HT29 colon) 13 µM | GI50 (SR leukemia) 1.65 µM | GI50 (SK-OV-3 ovarian) > 87.4 µM | GI50 (OVCAR-8 ovarian) 14.4 µM | GI50 (IGROV1 ovarian) 5.93 µM | GI50 (TK-10 renal) 11.1 µM | GI50 (A549 NSCLC) 11.6 µM | GI50 (HOP-92 NSCLC) 2.19 µM | GI50 (KM12 colon) 20.2 µM | GI50 (NCI-H460 lung) 32.8 µM | GI50 (CCRF-CEM leukemia) 3.42 µM | GI50 (EKVX NSCLC) 15.7 µM | GI50 (HCT-15 colon) 2.64 µM | GI50 (HL-60(TB) leukemia) 2.42 µM | GI50 (A498 renal) 37.8 µM | GI50 (MOLT-4 leukemia) 8.18 µM | GI50 (NCI-H522 lung) 0.633 µM | GI50 (SK-MEL-28 melanoma) 13.8 µM | GI50 (SF-268 CNS) 16.1 µM | GI50 (COLO 205 colon) 6.49 µM
> 37.8 µM: TGI (T-47D breast)
> 60.2 µM: TGI (MOLT-4 leukemia)
56.7 µM: TGI (HT29 colon)
19.7 µM: TGI (LOX IMVI melanoma)
62.2 µM: TGI (786-0 renal)
13.9 µM: TGI (IGROV1 ovarian)
> 40.9 µM: TGI (COLO 205 colon)
> 81.8 µM: TGI (SN12C renal)
60 µM: TGI (NCI-H226 lung)
22 µM: TGI (BT-549 breast)
21.9 µM: TGI (U251 CNS) | TGI (UO-31 renal)
17.9 µM: TGI (SK-MEL-2 melanoma)
> 75.5 µM: TGI (NCI/ADR-RES ovarian)
> 24.2 µM: TGI (HL-60(TB) leukemia)
10.6 µM: TGI (RPMI-8226 leukemia)
8.69 µM: TGI (HOP-92 NSCLC)
33 µM: TGI (HCC-2998 colon)
44.1 µM: TGI (TK-10 renal)
28.7 µM: TGI (SW-620 colon)
12.9 µM: TGI (HCT-15 colon)
33.2 µM: TGI (SF-539 CNS)
19.9 µM: TGI (ACHN renal)
51.6 µM: TGI (KM12 colon)
15.5 µM: TGI (HCT-116 colon)
23.8 µM: TGI (OVCAR-3 ovarian)
56.5 µM: TGI (MDA-MB-231 breast)
> 58.9 µM: TGI (DU-145 prostate)
> 96.7 µM: TGI (SNB-75 CNS)
29.4 µM: TGI (A549 NSCLC)
49 µM: TGI (EKVX NSCLC)
62.5 µM: TGI (NCI-H23 lung)
> 24.1 µM: TGI (HS 578T breast)
> 46 µM: TGI (CCRF-CEM leukemia)
> 90.7 µM: TGI (A498 renal)
15.4 µM: TGI (MALME-3M melanoma)
47 µM: TGI (OVCAR-5 ovarian)
61.5 µM: TGI (MDA-MB-435)
4.76 µM: TGI (SR leukemia)
27.8 µM: TGI (SK-MEL-5 melanoma)
1.8 µM: TGI (NCI-H522 lung)
11.3 µM: TGI (CAKI-1 renal)
17.5 µM: TGI (UACC-62 melanoma)
8.48 µM: TGI (RXF 393 renal)
11.4 µM: TGI (UACC-257 melanoma)
70.2 µM: TGI (OVCAR-8 ovarian)
22.9 µM: TGI (OVCAR-4 ovarian)
